Experimental data reported in patent US20050182025A1, “Amidinylphenyl compounds and their use as fungicides” (priority 2002, published 2005).

Experiments:
Assay type in all cases: in vivo
[1] = system: Erysiphe graminis f. sp. tritici; test: Test A: preventive spray on wheat seedlings, wheat powdery mildew, disease rating; conditions: wheat seedlings sprayed to run-off, inoculated the following day with Erysiphe graminis f. sp. tritici, rated after 7 days at 20° C.; test concentration not given
Excerpt: General protocol for preparing test suspensions: Test compounds were first dissolved in acetone in an amount equal to 3% of the final volume and then suspended at the desired concentration (in ppm) in acetone and purified water (50/50 mix) containing 250 ppm of the surfactant Trem® 014 (polyhydric alcohol esters). The resulting test suspensions were then used in the following tests. Spraying a 200 ppm test suspension to the point of run-off on the test plants was the equivalent of a rate of 500 g/ha. The test suspension was sprayed to the point of run-off on wheat seedlings. The following day the seedlings were inoculated with a spore dust of Erysiphe graminis f. sp. tritici, (the causal agent of wheat powdery mildew) and incubated in a growth chamber at 20° C. for 7 days, after which disease ratings were made. Results for Tests A-C are given in Table A. In the table, a rating of 100 indicates 100% disease control and a rating of 0 indicates no disease control (relative to the controls). A dash (-) indicates no test results.

[2] = system: Septoria nodorum; test: Test C: preventive spray on wheat seedlings, Septoria glume blotch, disease rating; conditions: wheat seedlings sprayed to run-off, inoculated the following day with Septoria nodorum, 48 h saturated atmosphere then 9 days at 20° C.; test concentration not given
Excerpt: (§1) General protocol for preparing test suspensions: Test compounds were first dissolved in acetone in an amount equal to 3% of the final volume and then suspended at the desired concentration (in ppm) in acetone and purified water (50/50 mix) containing 250 ppm of the surfactant Trem® 014 (polyhydric alcohol esters). The resulting test suspensions were then used in the following tests. Spraying a 200 ppm test suspension to the point of run-off on the test plants was the equivalent of a rate of 500 g/ha. The test suspension was sprayed to the point of run-off on wheat seedlings. The following day the seedlings were inoculated with a spore suspension of Septoria nodorum (the causal agent of Septoria glume blotch) and incubated in a saturated atmosphere at 20° C. for 48 h, and then moved to a growth chamber at 20° C. for 9 days, after which disease ratings were made. Results for Tests A-C are given in Table A. In the table, a rating of 100 indicates 100% disease control and a rating of 0 indicates no disease control (relative to the controls). A dash (-) indicates no test results.

[3] = system: Puccinia recondita; test: Test B: preventive spray on wheat seedlings, wheat leaf rust, disease rating; conditions: wheat seedlings sprayed to run-off, inoculated the following day with Puccinia recondita, 24 h saturated atmosphere then 6 days at 20° C.; test concentration not given
Excerpt: as §1, with “Puccinia recondita” for “Septoria nodorum”, “wheat leaf rust)” for “Septoria glume blotch)”, “24” for “48”, “6” for “9”

Compound | Test A disease control rating (100 = 100% disease control, 0 = no disease control relative to the controls) [1] | Test C disease control rating (100 = 100% disease control, 0 = no disease control relative to the controls) [2] | Test B disease control rating (100 = 100% disease control, 0 = no disease control relative to the controls) [3]
CC(C)=CCCC(C)=CCOc1cc(C)c(N=CN(C)C)cc1C [Compound 2] | 95% | 36% | 100%
CCCCCCCCCCOc1cc(C)c(N=CN(C)C)cc1C [Compound 24] | 86% | 0% | 23%
Cc1cc(NC(=O)NCC(C)C)c(C)cc1N=CN(C)C [compound 189] | 0% | 0% | 9%
CN(C)C=Nc1cc(Cl)c(OCCC[Si](C)(C)C)c(Cl)c1Cl [compound 55] | 0% | 0% | 19%
CCCN(C)C=Nc1cc(Cl)c(OCCC[Si](C)(C)C)cc1C [compound 58] | 100% | 100% | 100%
CCN(C)C(=S)Nc1cc(C)c(OCCCC(C)(C)C)c(Cl)c1C [compound 139] | 100% | 99% | 100%
C=C(COc1cc(C)c(N=CN(C)C)cc1C)C[Si](C)(C)C [Compound 38] | 96% | 20% | 100%
CCOC(C)(C)CCCOc1cc(C)c(N=CN(C)C)cc1C [Compound 44] | 99% | 99% | 100%
Cc1cc(NC(=O)NCC(C)(C)C)c(C)cc1N=CN(C)C [compound 190] | 0% | 0% | 68%
Cc1c(NC(=S)N(C)C)cc(Cl)c(OCCCC(C)(C)C)c1Cl [compound 121] | 49% | 67% | 85%
CCCCN(C)C=Nc1cc(C(C)C)c(OCCC[Si](C)(C)C)cc1C [compound 73] | 99% | 66% | 61%
Cc1cc(SC(CCC(C)C)CCC(C)C)c(C)cc1N=CN(C)C [compound 159] | 94% | 47% | 100%
CCCCC(CCCC)Nc1cc(C)c(N=CN(C)C)cc1C [compound 150] | 0% | 47% | 0%
CCCC(CCC)Sc1cc(C)c(N=CN(C)C)cc1C [compound 157] | 0% | 99% | 96%
Cc1cc(OCCC[Si](C)(C)C)c(C(C)C)cc1NC(=S)N(C)C(C)C [compound 92] | 100% | 100% | 100%
CCCCN(C)C(=S)Nc1cc(C(C)C)c(OCCC[Si](C)(C)C)cc1C [compound 91] | 0% | 0% | 26%
CCN(C)C=Nc1cc(C)c(OCCCC(C)C)c(Cl)c1C [compound 200] | 100% | 100% | 100%
Cc1cc(OCCCC(C)(C)C)c(C)cc1NC(=S)N(C)C [compound 192] | 99% | 100% | 100%
CCCCC(CCC)Oc1cc(C)c(N=CN(C)C)cc1C (stereo not drawn) [Compound 29] | 99% | 58% | 100%
Cc1cc(SC(C)CCC(C)C)c(C)cc1N=CN(C)C (stereo not drawn) [compound 105] | 97% | 98% | 100%
C=C(C)CCC(CC)Oc1cc(C)c(N=C(C)N(C)C)cc1C (stereo not drawn) [compound 104] | 0% | 0% | 23%
CCCCC(C)Oc1cc(C)c(N=CN(C)C)cc1C (stereo not drawn) [Compound 18] | 98% | 98% | 100%
CCN(C)C=Nc1cc(C)c(OCCC[Si](C)(C)C)c(Cl)c1C [compound 140] | 100% | 100% | 100%
CCC(CCC(C)C)Oc1cc(C)c(N=CN(C)C)cc1C (stereo not drawn) [Compound 31] | 93% | 53% | 100%
Cc1cc(OCCCCC(C)C)c(C)cc1N=CN(C)C [Compound 48] | 99% | 96% | 100%
CCN(CC)C(=S)Nc1cc(Cl)c(OCCCC(C)(C)C)cc1C [compound 177] | 96% | 100% | 100%
CC(C)=CCCOc1cc(C)c(N=CN(C)C)cc1C [Compound 39] | 0% | 94% | 100%
